Results reported in patent US20190233884A1 (University of Southern California, priority 2016, published 2019).
Where “and” joins values, the source holds several entries; their conditions need not be identical. Equal values may be shown once.

Test system: patients with refractory metastatic colorectal cancer (mCRC)
Assay: PFS, OS and disease control in the control cohort of refractory mCRC patients receiving regorafenib (n=52, Italy), by baseline characteristics and SNP genotype
Assay type: in vivo, human
Procedure: All patients underwent the treatment in salvage-line setting.
Patients in the control group received 160 mg regorafenib (Bayer, Leverkusen, Germany) once daily from day 1 to 21 every 4 weeks. Doses were adjusted based on haematological and non-haematological adverse events at the treating physician's discretion in accordance with the manufacturer's recommendations. The analyses were approved by the University of Southern California (USC) Institutional Review Board of Medical Sciences and conducted at the USC/Norris Comprehensive Cancer Center in accordance with the Declaration of Helsinki and Good Clinical Practice Guidelines.
Genomic DNA was extracted from peripheral whole blood in patients of all cohorts using the QIAmp Kit (Qiagen, Valencia, Calif., USA) according to the manufacturer's protocol (www.qiagen.com). The candidate SNPs were genotyped using PCR-based direct DNA sequence analysis by ABI 3100A Capillary Genetic Analyzer and Sequencing Scanner v1.0 (Applied Biosystems). Amplification of extracted DNA was carried out using both forward and reverse primers for each gene polymorphism as shown in Table 1. […] The investigators analyzing SNPs were blinded to the clinical data of the study patients.
The primary endpoint in this study was progression-free survival (PFS), and the secondary endpoints were overall survival (OS) and disease control rate (DCR). PFS was calculated from the date of starting treatment to the first observation of disease progression or death from any cause. If a patient had no disease progression or death, PFS was censored at the date of last follow up. OS was calculated from the date of starting treatment until the date of death from any cause or the date of the last follow-up, at which point OS was censored. The disease control rate (DCR) was defined as the proportion of patients who achieved a stable disease (SD) or […] according to RECISTv1.1. Chi-square test was used to examine the difference in baseline patient characteristics among the three cohorts. Allelic distribution of all SNPs by ethnicity for deviation from Hardy-Weinberg equilibrium and the allelic frequencies of SNPs were tested using the Chi-square tests with one degree of freedom. The associations between candidate SNPs and disease control, and toxicities were examined using contingency tables and Fisher's exact test. The associations of SNPs with PFS and OS were analysed using Kaplan-Meier curves and the log-rank test. Because the true mode of inheritance of candidate SNPs was not established yet, a codominant or dominant genetic model if appropriate was considered.
All patients underwent the treatment in salvage-line setting. […] In all patients, adverse events were graded according to the Common Terminology Criteria for Adverse Events, version 4.0.
Patients in the control group received 160 mg regorafenib (Bayer, Leverkusen, Germany) once daily from day 1 to 21 every 4 weeks. Doses were adjusted based on haematological and non-haematological adverse events at treating physician's discretion in accordance with the manufacturer's recommendations. The analyses were approved by the University of Southern California (USC) Institutional Review Board of Medical Sciences and conducted at the USC/Norris Comprehensive Cancer Center in accordance with the Declaration of Helsinki and Good Clinical Practice Guidelines.
Genomic DNA was extracted from peripheral whole blood in patients of all cohorts using the QIAmp Kit (Qiagen, Valencia, Calif., USA) according to the manufacturer's protocol (www.qiagen.com). The candidate SNPs were tested using PCR-based direct DNA sequence analysis by ABI 3100A Capillary Genetic Analyzer and Sequencing Scanner v1.0 (Applied Biosystems). […] The investigators analyzing SNPs were blinded to the clinical data.
The primary endpoint in this study was progression-free survival (PFS), and the secondary endpoints were overall survival (OS) and disease control rate (DCR). […]

[1] = control cohort, OCT2 rs316019 C/A and A/A combined
[2] = control cohort, OCT2 rs316019 C/A and A/A combined vs C/C
[3] = control cohort, OCT2 rs316019 C/C
[4] = control cohort, adjusted for ECOG performance status and number of metastases
[5] = control cohort, hENT1 rs760370 A/A
[6] = control cohort, hENT1 rs760370 A/G
[7] = control cohort, hENT1 rs760370 A/G vs A/A
[8] = control cohort, hENT1 rs760370 Any G
[9] = control cohort, hENT1 rs760370 Any G vs A/A
[10] = control cohort, hENT1 rs760370 G/G
[11] = control cohort, hENT1 rs760370 G/G vs A/A
[12] = control cohort, hENT rs9394992 C/C
[13] = control cohort, hENT rs9394992 C/T
[14] = control cohort, hENT rs9394992 C/T and T/T combined
[15] = control cohort, hENT rs9394992 C/T and T/T combined vs C/C
[16] = control cohort, hENT rs9394992 T/T

CNC(=O)c1cc(Oc2ccc(NC(=O)Nc3ccc(Cl)c(C(F)(F)F)c3)c(F)c2)ccn1 [regorafenib]
Disease Control Rate SD (control cohort, OCT2 rs316019 C/A): 1 (14%) | Overall Survival Median, months (95% CI) [1]: 5.3 (3.6, 9.6) months | Progression-free Survival Median, months (95% CI) [1]: 1.8 (1.5, 2.0) months | Overall Survival HR (95% CI) multivariate [2]: 0.90 (0.39, 2.09) | Overall Survival HR (95% CI) univariate [2]: 0.79 (0.35, 1.75) | Progression-free Survival HR (95% CI) multivariate [2]: 1.50 (0.62, 3.61) | Progression-free Survival HR (95% CI) univariate [2]: 1.00 (0.44, 2.25) | Disease Control Rate PD [3]: 25 (61%) | Disease Control Rate SD [3]: 16 (39%) | Overall Survival Median, months (95% CI) [3]: 3.3 (2.6, 7.9) months | Progression-free Survival Median, months (95% CI) [3]: 2.1 (1.7, 3.2) months | Overall Survival HR (95% CI) multivariate [4]: 0.80 (0.40, 1.61) | Progression-free Survival HR (95% CI) multivariate [4]: 0.88 (0.45, 1.70) | Disease Control Rate PD [5]: 15 (65%) and 13 (65%) | Disease Control Rate SD [5]: 7 (35%) | Overall Survival Median, months (95% CI) [5]: 5.9 (4.5, 8.0) months and 5.9 (4.5, 5.0) months | Progression-free Survival Median, months (95% CI) [5]: 2.1 (1.8, 3.1) months | Disease Control Rate PD [6]: 11 (61%) | Disease Control Rate SD [6]: 7 (39%) | Overall Survival Median, months (95% CI) [6]: 5.7 (2.0, 8.9) months | Progression-free Survival Median, months (95% CI) [6]: 1.9 (1.6, 3.9) months | Overall Survival HR (95% CI) multivariate [7]: 0.95 (0.50, 1.90) | Overall Survival HR (95% CI) univariate [7]: 1.25 (0.67, 2.35) | Progression-free Survival HR (95% CI) multivariate [7]: 1.08 (0.57, 2.08) | Progression-free Survival HR (95% CI) univariate [7]: 1.26 (0.67, 2.37) | Disease Control Rate PD [8]: 19 (66%) | Disease Control Rate SD [8]: 10 (34%) | Overall Survival Median, months (95% CI) [8]: 4.1 (2.2, 7.8 ) months | Progression-free Survival Median, months (95% CI) [8]: 1.8 (1.5, 2.2) months | Overall Survival HR (95% CI) multivariate [9]: 1.01 (0.55, 1.88) | Overall Survival HR (95% CI) univariate [9]: 1.22 (0.70, 2.13) | Progression-free Survival HR (95% CI) multivariate [9]: 1.15 (0.61, 2.15) | Progression-free Survival HR (95% CI) univariate [9]: 1.25 (0.71, 2.20) | Disease Control Rate SD [10]: 3 (27%) | Overall Survival Median, months (95% CI) [10]: 2.4 (1.2, 9.1) months | PD, patients n (%) [10]: 8 (73%) | Progression-free Survival Median, months (95% CI) [10]: 1.4 (0.4, 4.3) months | Overall Survival HR (95% CI) multivariate [11]: 1.11 (0.48, 2.56) | Overall Survival HR (95% CI) univariate [11]: 1.17 (0.55, 2.46) | Progression-free Survival HR (95% CI) multivariate [11]: 1.57 (0.57, 4.35) | Progression-free Survival HR (95% CI) univariate [11]: 1.24 (0.59, 2.59) | Disease Control Rate PD [12]: 14 (70%) | Disease Control Rate SD [12]: 6 (30%) | Overall Survival Median, months (95% CI) [12]: 4.4 (2.6, 6.0) months | Progression-free Survival Median, months (95% CI) [12]: 2.0 (1.2, 2.7) months | Disease Control Rate PD [13]: 16 (70%) | Disease Control Rate SD [13]: 7 (30%) | Overall Survival Median, months (95% CI) [14]: 7.7 (3.7, 8.9) months | Progression-free Survival Median, months (95% CI) [14]: 1.9 (1.7, 3.9) months | Overall Survival HR (95% CI) multivariate [15]: 0.64 (0.32, 1.30) | Overall Survival HR (95% CI) univariate [15]: 0.57 (0.31, 1.05) | Progression-free Survival HR (95% CI) multivariate [15]: 0.85 (0.46, 1.59) | Progression-free Survival HR (95% CI) univariate [15]: 0.75 (0.42, 1.32) | Disease Control Rate PD [16]: 2 (33%) | Disease Control Rate SD [16]: 4 (67%) | Progression-free Survival Median, months (95% CI) (control cohort, per OCT2 rs316000 genotype (row), OCT2 rs316000 Any A genotype): 1.8 (1.6, 2.8) months | Progression-free Survival Median, months (95% CI) (control cohort, per OCT2 rs316000 genotype (row), OCT2 rs316000 G/G genotype): 2.1 (1.7, 3.1) months | Median OS (whole control cohort): 5.3 months | Median PFS (whole control cohort): 1.9 months
